Among the data in ChEMBL document CHEMBL3120139, “Design, synthesis, pharmacological evaluation and computational studies of 1-(biphenyl-4-yl)-2-[4-(substituted phenyl)-piperazin-1-yl]ethanones as potential antipsychotics” (Eur J Med Chem, 2014) are Activity and inhibition in vivo values, retold here.

For series [1], the system named is Mus musculus. Description: Induction of catalepsy in albino mouse at 15 mg/kg, ip relative to control. In kind it is organism-based. Also noted: dose 15 mg/kg, route intraperitoneal. As to conditions: in vivo.
The test system of series [2] is Mus musculus. Kind of series: Antiserotogenic activity in albino mouse assessed as inhibition of 5HTP-induced head twitches at 15 mg/kg, ip measured for 5 mins at every 5 mins interval for 1 hr relative to control. It counts as functional. The note with it: route intraperitoneal.
Series [3] relates to Mus musculus. Description: Antipsychotic activity in albino mouse assessed as inhibition of apomorphine-induced climbing behaviour at 15 mg/kg, ip measured after 10 mins at 5 mins interval for 30 mins relative to control. It counts as functional. The note with it: route intraperitoneal.

Broadly, the inhibition in vivo is how much of the control response was suppressed. For `O=C(CN1CCN(c2cccc(Cl)c2Cl)CC1)c1ccc(-c2ccccc2)cc1`, the Activity in series [1] came to 28.97%. Besides, the inhibition in vivo at 15 mg/kg in series [2] was 38.3%; in series [3], 42.8%.
Molecule `Cc1ccc(N2CCN(CC(=O)c3ccc(-c4ccccc4)cc3)CC2)cc1` registered an Activity in series [1] of 38.66%. Moreover, the inhibition in vivo at 15 mg/kg worked out at 29.8% in series [2] and 33.3% in series [3].
Consider `O=C(CN1CCN(c2cccc(Cl)c2)CC1)c1ccc(-c2ccccc2)cc1`, for which the Activity in series [1] was 31.84%. Besides, the inhibition in vivo at 15 mg/kg came to 32.6% in series [2] and 29.9% in series [3].
Turning to `COc1ccc(N2CCN(CC(=O)c3ccc(-c4ccccc4)cc3)CC2)cc1`, the Activity in series [1] is reported as 59.28%. In addition, the results for the inhibition in vivo at 15 mg/kg in series [2] and in series [3] were 36.1% and 32.9%, respectively.
The like results for `O=C(CN1CCN(c2ccccc2)CC1)c1ccc(-c2ccccc2)cc1` were, in that order, 34.53%, 28% and 31.9%.
In the case of `O=C(CN1CCN(c2ccc(F)cc2)CC1)c1ccc(-c2ccccc2)cc1`, the Activity in series [1] was 30.48%. Further, the inhibition in vivo at 15 mg/kg in series [2] was 24.5%; in series [3], 23.4%.
`O=C(CN1CCN(c2ccc(Cl)cc2)CC1)c1ccc(-c2ccccc2)cc1`: the Activity in series [1] was 35.17%. Further, the inhibition in vivo at 15 mg/kg came to 29.2% in series [2] and 26.4% in series [3].
For `O=C(CN1CCN(c2ccc(Cl)c(Cl)c2)CC1)c1ccc(-c2ccccc2)cc1`, in series [1], the Activity was 30.5%. The inhibition in vivo at 15 mg/kg was 38.8% in series [2] and 25.7% in series [3].
In the case of `O=C(CN1CCN(c2cccc(C(F)(F)F)c2)CC1)c1ccc(-c2ccccc2)cc1`, the Activity in series [1] amounted to 31.84%. Moreover, the values for the inhibition in vivo at 15 mg/kg in series [2] and in series [3] were 32.6% and 26.4%, respectively.
Consider `O=C(CN1CCN(c2ccccc2Cl)CC1)c1ccc(-c2ccccc2)cc1`, for which the Activity in series [1] was 42.31%. Moreover, the inhibition in vivo at 15 mg/kg in series [2] turned out to be 35.2%; in series [3] it was 38.2%.
Molecule `Cc1ccccc1N1CCN(CC(=O)c2ccc(-c3ccccc3)cc2)CC1` had an Activity in series [1] of 35.84%. In addition, the inhibition in vivo at 15 mg/kg in series [2] stood at 26.7%; in series [3], 38.5%.
Turning to `O=C1CCc2ccc(OCCCCN3CCN(c4cccc(Cl)c4Cl)CC3)cc2N1` [ARIPIPRAZOLE], the Activity in series [1] is 26.86%. For the same molecule, the inhibition in vivo at 15 mg/kg in series [2] worked out at 94.5%; in series [3], 61.1%.
In turn, `Cc1cccc(N2CCN(CC(=O)c3ccc(-c4ccccc4)cc3)CC2)c1` yielded an Activity in series [1] of 33.82%. Further, the figures for the inhibition in vivo at 15 mg/kg in series [2] and in series [3] were 29.6% and 33.6%, respectively.
On to `Cc1cccc(N2CCN(CC(=O)c3ccc(-c4ccccc4)cc3)CC2)c1C`, for which, in series [1], the Activity was 29.87%. Further, the inhibition in vivo at 15 mg/kg came out at 35.4% in series [2] and 40.7% in series [3].
As for `COc1ccccc1N1CCN(CC(=O)c2ccc(-c3ccccc3)cc2)CC1`, the Activity in series [1] was 29.43%. The inhibition in vivo at 15 mg/kg in series [2] turned out to be 61.3%; in series [3] it was 53.4%.
